Assay results taken from the supplement of paper PMC10307832.

Assays:
Test in all cases: relative viability (nuclei count vs DMSO), 5 days (fraction); higher = more cells survive
[1] = tested on: HCC-44
Procedure, shortened: (§1)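 Lung cancer cell lines were pin-tool dosed in 1536-well plates on the day after seeding, with either a lone drug or a fixed anchor-drug dose plus five library-drug doses (not always all listed) in √10 steps. Nuclei were counted on 4× images after 5 days. Relative viability is the ratio of treated-well to vehicle-well nuclei counts, with each value a median of duplicate plates.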

[2] = tested on: UMC-11
Procedure, shortened: as §1

[3] = tested on: COR-L23
Procedure, shortened: as §1

[4] = tested on: NCI-H2126
Procedure, shortened: as §1

[5] = tested on: NCI-H1651
Procedure, shortened: as §1

[6] = tested on: HOP-62
Procedure, shortened: as §1

[7] = tested on: PC-14
Procedure, shortened: as §1

[8] = tested on: HCC-15
Procedure, shortened: as §1

[9] = tested on: NCI-H358
Procedure, shortened: as §1

[10] = tested on: LC-2-ad
Procedure, shortened: as §1

[11] = tested on: NCI-H650
Procedure, shortened: as §1

[12] = tested on: LU99A
Procedure, shortened: as §1

O=c1cc(-c2cccc3c2Sc2ccccc2S3)oc(N2CCOCC2)c1 + O=C(CCCCCCC(=O)Nc1ccccc1)NO [Vorinostat] (partner 1 µM)
relative viability ([1]; first compound 0.08 µM): 1.13
relative viability ([1]; first compound 0.253 µM): 1.05
relative viability ([1]; first compound 0.8 µM): 1.17
relative viability ([1]; first compound 2.53 µM): 1.05
relative viability ([1]; first compound 8 µM): 1.08
relative viability ([2]; first compound 0.08 µM): 0.312
relative viability ([2]; first compound 0.253 µM): 0.454
relative viability ([2]; first compound 0.8 µM): 0.362
relative viability ([2]; first compound 2.53 µM): 0.394
relative viability ([2]; first compound 8 µM): 0.336
relative viability ([3]; first compound 0.08 µM): 0.472
relative viability ([3]; first compound 0.253 µM): 0.457
relative viability ([3]; first compound 0.8 µM): 0.397
relative viability ([3]; first compound 2.53 µM): 0.442
relative viability ([3]; first compound 8 µM): 0.446
relative viability ([4]; first compound 0.08 µM): 0.722
relative viability ([4]; first compound 0.253 µM): 0.781
relative viability ([4]; first compound 0.8 µM): 0.792
relative viability ([4]; first compound 2.53 µM): 0.823
relative viability ([4]; first compound 8 µM): 0.74
relative viability ([5]; first compound 0.08 µM): 0.585
relative viability ([5]; first compound 0.253 µM): 0.638
relative viability ([5]; first compound 0.8 µM): 0.571
relative viability ([5]; first compound 2.53 µM): 0.519
relative viability ([5]; first compound 8 µM): 0.578
relative viability ([6]; first compound 0.08 µM): 0.646
relative viability ([6]; first compound 0.253 µM): 0.832
relative viability ([6]; first compound 0.8 µM): 0.691
relative viability ([6]; first compound 2.53 µM): 0.661
relative viability ([6]; first compound 8 µM): 0.664
relative viability ([7]; first compound 0.08 µM): 0.734
relative viability ([7]; first compound 0.253 µM): 0.879
relative viability ([7]; first compound 0.8 µM): 0.685
relative viability ([7]; first compound 2.53 µM): 0.628
relative viability ([7]; first compound 8 µM): 0.701
relative viability ([8]; first compound 0.08 µM): 0.906
relative viability ([8]; first compound 0.253 µM): 0.952
relative viability ([8]; first compound 0.8 µM): 0.82
relative viability ([8]; first compound 2.53 µM): 0.722
relative viability ([8]; first compound 8 µM): 0.808
relative viability ([9]; first compound 0.08 µM): 0.725
relative viability ([9]; first compound 0.253 µM): 0.651
relative viability ([9]; first compound 0.8 µM): 0.705
relative viability ([9]; first compound 2.53 µM): 0.71
relative viability ([9]; first compound 8 µM): 0.632
relative viability ([10]; first compound 0.08 µM): 0.683
relative viability ([10]; first compound 0.253 µM): 0.835
relative viability ([10]; first compound 0.8 µM): 0.684
relative viability ([10]; first compound 2.53 µM): 0.695
relative viability ([10]; first compound 8 µM): 0.69
relative viability ([11]; first compound 0.08 µM): 0.473
relative viability ([11]; first compound 0.253 µM): 0.478
relative viability ([11]; first compound 0.8 µM): 0.393
relative viability ([11]; first compound 2.53 µM): 0.345
relative viability ([11]; first compound 8 µM): 0.458
relative viability ([12]; first compound 0.08 µM): 0.429
relative viability ([12]; first compound 0.253 µM): 0.499
